Experiments:
Format in all cases: in vivo
[1] = tested on: kochia (Bassia scoparia); test: Test A postemergence, kochia; conditions: Postemergence
Outline: (§1)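 Test chemicals, formulated in a non-phytotoxic solvent mixture with surfactant, were sprayed postemergence on plants 2 to 10 cm tall at the one- to two-leaf stage. Preemergence treatment was a directed soil spray onto freshly seeded pots. Both used a loam soil and sand blend.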

[2] = tested on: corn (Zea mays); test: Test A postemergence, corn; conditions: Postemergence
Outline: as §1

[3] = tested on: ragweed (common ragweed, Ambrosia artemisiifolia); test: Test A postemergence, ragweed; conditions: Postemergence
Outline: as §1

[4] = tested on: pigweed (Amaranthus retroflexus); test: Test A preemergence, pigweed; conditions: for Plant response rating, Pigweed: 0 to 100 scale (0 no effect, 100 complete control); for Pigweed plant response rating: visual injury on 0 to 100 scale (0 no effect, 100 complete control), approximately 10 days
Outline: as §1

[5] = tested on: Ryegrass, Italian (Italian ryegrass, Lolium multiflorum); test: Test A preemergence, Ryegrass, Italian; conditions: Preemergence; for Plant response rating, Ryegrass, Italian: 0 to 100 scale (0 no effect, 100 complete control); for Ryegrass, Italian plant response rating: visual injury on 0 to 100 scale (0 no effect, 100 complete control), approximately 10 days
Outline: as §1

[6] = tested on: barnyardgrass (Echinochloa crus-galli); test: Test A preemergence, barnyardgrass; conditions: Preemergence; for Plant response rating, Barnyardgrass: 0 to 100 scale (0 no effect, 100 complete control); for Barnyardgrass plant response rating: visual injury on 0 to 100 scale (0 no effect, 100 complete control), approximately 10 days
Outline: as §1

[7] = tested on: blackgrass (Alopecurus myosuroides); test: Test A postemergence, blackgrass; conditions: Postemergence
Outline: as §1

[8] = tested on: ragweed (common ragweed, Ambrosia artemisiifolia); test: Test A preemergence, ragweed; conditions: Preemergence; for Plant response rating, Ragweed: 0 to 100 scale (0 no effect, 100 complete control); for Ragweed plant response rating: visual injury on 0 to 100 scale (0 no effect, 100 complete control), approximately 10 days
Outline: as §1

[9] = tested on: Foxtail, Giant (giant foxtail, Setaria faberi); test: Test A postemergence, Foxtail, Giant; conditions: Postemergence
Outline: as §1

[10] = tested on: kochia (Bassia scoparia); test: Test A preemergence, kochia; conditions: Preemergence; for Plant response rating, Kochia: 0 to 100 scale (0 no effect, 100 complete control); for Kochia plant response rating: visual injury on 0 to 100 scale (0 no effect, 100 complete control), approximately 10 days
Outline: as §1

[11] = tested on: Ryegrass, Italian (Italian ryegrass, Lolium multiflorum); test: Test A postemergence, Ryegrass, Italian; conditions: Postemergence
Outline: as §1

[12] = tested on: barnyardgrass (Echinochloa crus-galli); test: Test A postemergence, barnyardgrass; conditions: Postemergence
Outline: as §1

[13] = tested on: pigweed (Amaranthus retroflexus); test: Test A postemergence, pigweed; conditions: Postemergence
Outline: as §1

[14] = tested on: wheat (Triticum aestivum); test: Test A postemergence, wheat; conditions: Postemergence
Outline: as §1

[15] = tested on: Foxtail, Giant (giant foxtail, Setaria faberi); test: Test A preemergence, Foxtail, Giant; conditions: Preemergence; for Plant response rating, Foxtail, Giant: 0 to 100 scale (0 no effect, 100 complete control); for Foxtail, Giant plant response rating: visual injury on 0 to 100 scale (0 no effect, 100 complete control), approximately 10 days
Outline: as §1

[16] = tested on: galium (catchweed bedstraw, Galium aparine); test: Test A postemergence, galium; conditions: Postemergence
Outline: as §1

[17] = 125 g ai/ha, 0 to 100 scale (0 no effect, 100 complete control)
[18] = 500 g ai/ha, visual injury approx. 10 days, 0 to 100 scale (0 no effect, 100 complete control)
[19] = 125 g ai/ha, visual injury, approx. 10 days
[20] = 125 g ai/ha, visual injury approx. 10 days, 0 to 100 scale (0 no effect, 100 complete control)
[21] = 500 g ai/ha, visual injury vs untreated controls after approx. 10 days, 0 to 100 scale (0 no effect, 100 complete control)
[22] = 31 g ai/ha, visual injury on 0 to 100 scale (0 no effect, 100 complete control), approx. 10 days
[23] = 31 g ai/ha, visual injury, approx. 10 days

Cc1cc(C)c(N(S(=O)(=O)C(F)(F)F)S(=O)(=O)C(F)(F)F)cc1C(=O)N1CCC(Cl)CC1 [Compound 243]
Plant response rating, Kochia [1, 17]: 10
Plant response rating, Kochia [1, 18]: 70
Plant response rating, Corn [2, 17]: 0
Plant response rating, Corn [2, 18]: 0
Plant response rating, Ragweed [3, 17]: 30
Plant response rating, Ragweed [3, 18]: 90
Plant response rating, Pigweed [4, 19]: 100
Pigweed plant response rating ([4]; 500 g ai/ha): 100
Plant response rating, Ryegrass, Italian [5, 19]: 90
Ryegrass, Italian plant response rating ([5]; 500 g ai/ha): 100
Plant response rating, Barnyardgrass [6, 19]: 80
Barnyardgrass plant response rating ([6]; 500 g ai/ha): 90
Plant response rating, Blackgrass [7, 17]: 0
Plant response rating, Blackgrass [7, 18]: 10
Plant response rating, Ragweed [8, 19]: 70
Ragweed plant response rating ([8]; 500 g ai/ha): 80
Plant response rating, Foxtail, Giant [9, 17]: 0
Plant response rating, Foxtail, Giant [9, 18]: 40
Plant response rating, Kochia [10, 19]: 20
Kochia plant response rating ([10]; 500 g ai/ha): 80
Plant response rating, Ryegrass, Italian [11, 17]: 0
Plant response rating, Ryegrass, Italian [11, 18]: 30
Plant response rating, Barnyardgrass [12, 17]: 50
Plant response rating, Barnyardgrass [12, 18]: 70
Plant response rating, Pigweed [13, 17]: 90
Plant response rating, Pigweed [13, 18]: 100
Plant response rating, Wheat [14, 17]: 0
Plant response rating, Wheat [14, 18]: 30
Plant response rating, Foxtail, Giant [15, 19]: 100
Foxtail, Giant plant response rating ([15]; 500 g ai/ha): 100
Plant response rating, Galium [16, 17]: 70
Plant response rating, Galium [16, 18]: 90

Cc1c(NS(=O)(=O)C(F)(F)F)cc(C(=O)N2CCC3(CC2)OCCCO3)c(C)c1F [Compound 129]
Plant response rating, Kochia [1, 20]: 30
Kochia plant response rating [1, 21]: 50
Plant response rating, Corn [2, 20]: 10
Corn plant response rating [2, 21]: 20
Plant response rating, Ragweed [3, 20]: 60
Ragweed plant response rating [3, 21]: 90
Pigweed plant response rating ([4]; 125 g ai/ha): 100
Plant response rating, Pigweed ([4]; 500 g ai/ha): 100
Ryegrass, Italian plant response rating ([5]; 125 g ai/ha): 80
Plant response rating, Ryegrass, Italian ([5]; 500 g ai/ha): 100
Barnyardgrass plant response rating ([6]; 125 g ai/ha): 100
Plant response rating, Barnyardgrass ([6]; 500 g ai/ha): 90
Plant response rating, Blackgrass [7, 20]: 20
Blackgrass plant response rating [7, 21]: 30
Ragweed plant response rating ([8]; 125 g ai/ha): 70
Plant response rating, Ragweed ([8]; 500 g ai/ha): 90
Plant response rating, Foxtail, Giant [9, 20]: 0
Foxtail, Giant plant response rating [9, 21]: 30
Kochia plant response rating ([10]; 125 g ai/ha): 80
Plant response rating, Kochia ([10]; 500 g ai/ha): 90
Plant response rating, Ryegrass, Italian [11, 20]: 0
Ryegrass, Italian plant response rating [11, 21]: 70
Plant response rating, Barnyardgrass [12, 20]: 20
Barnyardgrass plant response rating [12, 21]: 80
Plant response rating, Pigweed [13, 20]: 30
Pigweed plant response rating [13, 21]: 90
Plant response rating, Wheat [14, 20]: 30
Wheat plant response rating [14, 21]: 60
Foxtail, Giant plant response rating ([15]; 125 g ai/ha): 100
Plant response rating, Foxtail, Giant ([15]; 500 g ai/ha): 100
Plant response rating, Galium [16, 20]: 60
Galium plant response rating [16, 21]: 80

CCOC1CCCN(C(=O)c2cc(NS(=O)(=O)C(F)(F)F)c(C)cc2C)C1 (stereo not drawn) [Compound 154]
Plant response rating, Kochia [1, 22]: 10
Plant response rating, Kochia [1, 17]: 30
Plant response rating, Corn [2, 22]: 0
Plant response rating, Corn [2, 17]: 10
Plant response rating, Ragweed [3, 22]: 0
Plant response rating, Ragweed [3, 17]: 20
Plant response rating, Pigweed [4, 23]: 20
Pigweed plant response rating ([4]; 125 g ai/ha): 100
Plant response rating, Ryegrass, Italian [5, 23]: 20
Ryegrass, Italian plant response rating ([5]; 125 g ai/ha): 70
Plant response rating, Barnyardgrass [6, 23]: 0
Barnyardgrass plant response rating ([6]; 125 g ai/ha): 50
Plant response rating, Blackgrass [7, 22]: 0
Plant response rating, Blackgrass [7, 17]: 20
Plant response rating, Ragweed [8, 23]: 50
Ragweed plant response rating ([8]; 125 g ai/ha): 80
Plant response rating, Foxtail, Giant [9, 22]: 20
Plant response rating, Foxtail, Giant [9, 17]: 20
Plant response rating, Kochia [10, 23]: 0
Kochia plant response rating ([10]; 125 g ai/ha): 40
Plant response rating, Ryegrass, Italian [11, 22]: 0
Plant response rating, Ryegrass, Italian [11, 17]: 0
Plant response rating, Barnyardgrass [12, 22]: 30
Plant response rating, Barnyardgrass [12, 17]: 70
Plant response rating, Pigweed [13, 22]: 40
Plant response rating, Pigweed [13, 17]: 60
Plant response rating, Wheat [14, 22]: 30
Plant response rating, Wheat [14, 17]: 70
Plant response rating, Foxtail, Giant [15, 23]: 60
Foxtail, Giant plant response rating ([15]; 125 g ai/ha): 90
Plant response rating, Galium [16, 22]: 50
Plant response rating, Galium [16, 17]: 80
